Measurements: patent US20260355136A1, “PROSTACYCLIN FOR TREATING PULMONARY HYPERTENSION” (Shanghai Forefront Pharma Co., Ltd., priority 2023, published 2026)

Experiments:
Type in all cases: in vivo, male Sprague-Dawley rats
[1] = tested on: MCT modeling rats; assay: Hemodynamic measurement of right ventricular systolic pressure (RVSP) by right cardiac catheterization in MCT-modeled rats
Experimental: (§1) Twenty-eight 7-week-old male Sprague-Dawley rats (average weight of 200-250 g) were purchased from Vital River and were raised at the experimental site for 1 week of acclimatization (temperature 20 °C-26 °C, humidity 30%-70%, light-dark cycle ratio 1:1) until they were 8 weeks old.
(§2) Twenty-eight rats were randomized into the following 6 groups, including dosing groups, positive control groups, a negative control group and a healthy control group, and each was marked with ear tags.
(§3) • (1) Preparation of monocrotaline (MCT) solution: An adequate amount of MCT was weighed into a 50 mL solution of 20% ethanol-normal saline. After gentle shaking, the solution was transferred to a 50-mL centrifuge tube, and placed tilted in a thermostatic shaker at 37 °C, 220 rpm for 12-14 hours to fully dissolve until no visible crystalline particles observed. • (2) Injection of MCT solution: The skin on the dorsal cervical region of the rats was gently lifted, MCT solution was subcutaneously injected at a dose of 60 mg/kg using a 1-mL syringe and the day was recorded as Day 0. • (3) Healthy control: The same volume of normal saline was injected in the same manner. […]
(§4) Starting from Day 14, the rats were weighed daily, and the corresponding solutions (test compound or normal saline) were administered intragastrically according to the grouping protocol until Day 27, for a total of 14 days; the intragastric dose was 0.5 mL/100 g, and the body weight and survival data of the rats were recorded. […]
(§5) Note: Due to the limited total amount of Compound 1, rats in Group 1 were actually administered for 13 days, rats in Group 2 were actually administered for 12 days, and all were measured and sampled on Day 27; rats in Groups 3-6 were actually administered for 14 days, and all were measured and sampled on Day 27.
(§6) Rats in Groups 3-6 were actually administered for 14 days, and all were measured and sampled on Day 27. […]

[2] = tested on: MCT modeling rats; assay: Fulton index (RV/(LV+S)) measurement in MCT-modeled rats
Experimental: The Fulton index reflects the organ remodeling caused by PAH. […] This is a goal that current pharmaceutical drugs for treating PAH cannot achieve, but one that new drugs for PAH aim to reach.
as §1, §2, §3, §4
After separating the heart, the non-ventricular parts (such as the atria, blood vessels, and valve rings) were cut off. […] RV/(LV+S) was calculated as the Fulton index. […]
as §6

[3] = Body weight of MCT-modeled rats; details: intragastric; for Body weight on Day 0: Day 0 = MCT injection, before dosing; for Body weight on Day 14: Day 14 = start of dosing; for Body weight at sampling: sampled on Day 27
Experimental: as §1, §2
• (1) Preparation of monocrotaline (MCT) solution: An adequate amount of MCT was weighed into a 50 mL solution of 20% ethanol-normal saline. After gentle shaking, the solution was transferred to a 50-mL centrifuge tube, and placed tilted in a thermostatic shaker at 37 °C, 220 rpm for 12-14 hours to fully dissolve until no visible crystalline particles observed. • (2) Injection of MCT solution: The skin on the dorsal cervical region of the rats was gently lifted, MCT solution was subcutaneously injected at a dose of 60 mg/kg using a 1-mL syringe and the day was recorded as Day 0. • (3) Healthy control: The same volume of normal saline was injected in the same manner.
According to the concentration of 0.6 mg/mL and 1.2 mg/mL (3-mg/kg/day and 6-mg/kg/day dose groups), appropriate amounts of the test compound were weighed and dissolved in corresponding volume of pure water by shaking to obtain transparent solution, respectively; • (2) The resulting solutions were stored in a 4 °C refrigerator. Remove and equilibrate to room temperature before use;
Starting from Day 14, the rats were weighed daily, and the corresponding solutions (test compound or normal saline) were administered intragastrically according to the grouping protocol until Day 27, for a total of 14 days; the intragastric dose was 0.5 mL/100 g, and the body weight and survival data of the rats were recorded.
as §5

CCCCC[C@H](O)CC[C@@H]1[C@H]2Cc3cccc(OCC(=O)O)c3C[C@H]2C[C@H]1O [Compound C1, Treprostinil sodium 5.5-hydrate]
RVSP compared with healthy control group ([1]; 3 and 6 mg/kg): still higher than that in the healthy control group | RVSP reduction in rats ([1]; 3 and 6 mg/kg): can significantly reduce RVSP in rats | RVSP, difference between dosing groups ([1]; 6 vs 3 mg/kg): no significant difference in the effects between the two dosing groups | Fulton index compared with healthy control group ([2]; 3 and 6 mg/kg): still higher than that of the healthy control group | Fulton index reduction of rat heart ([2]; 3 and 6 mg/kg): can significantly reduce the Fulton index of rat heart | Fulton index, difference between dosing groups ([2]; 6 vs 3 mg/kg): no significant difference in the effects between the two dosing groups | Body weight on Day 0 ([3]; 3 mg/kg/day group): 330 + 25.11 g | Body weight on Day 14 ([3]; 3 mg/kg/day group): 430 + 34.15 g | Body weight at sampling ([3]; 3 mg/kg/day): 431 + 58.03 g | Body weight on Day 0 ([3]; 6 mg/kg/day group): 316 + 4.35 g | Body weight on Day 14 ([3]; 6 mg/kg/day group): 413 + 15.81 g | Body weight at sampling ([3]; 6 mg/kg/day): 436 + 9.65 g
